# In patent publication US20170312253A1 (The Third Affiliated Hospital, Third Military Medical …, priority 2014, published 2017):
# Test system: Aβ deposition in the blood vessels of the brain
# Experiment: Cerebrovascular amyloidosis detection (double immunofluorescence 1a4/6E10)
# Type: in vivo
# Details: AD mice
# Protocol: APPswe/PS1DE9 (AD) transgenic mice were purchased from Jackson Laboratory, USA (No. 005864), raised in the SPF grade animal house of The Third Affiliated Hospital of The Third Military Medical University. All the processes and correlated experiments applied to the mice were approved and filed with the Animal Ethics Committee of the Third Military Medical University. […] Alternatively, the daily dose for the prophylactic group may be 6.4 mg/kg, and the daily dose for the treatment group may be 12.8 mg/kg. Administration from 3-month old to 9-month old is the prophylactic test, and administration from 9-month old to 12-month old is the therapeutic test After reaching a stated time, the mice in each group received behavioral tests according to the method in the follows. Three mice in each group were taken for Golgi staining. The remaining mice were overly anaesthetized to receive brain anatomy. One side of the cerebral hemisphere was frozen and then for a biochemical analysis, and the other side of the cerebral hemisphere was fixed with 4% paraform for a histological analysis.
# A new assessment method was applied in the present research to assess the severity of the cerebrovascular amyloidosis. The blood vessels in the brain were double immunofluorescence stained with α-smooth muscle action antibody (1a4) and Aβ antibody (6E10), observed under eonfocal laser microscopy (Radiance 2000MP, Bio-Rad), and the images of the blood vessels were recorded. The severity of the CAA of each blood vessel was scored based on the following four-level scale: level 0: no Aβ deposition; level 1: little Aβ deposition, Aβ deposition occupies less than one third of the perimeter of the blood vessel; level 2: moderate Aβ deposition, Aβ deposition occupies more than one third but less than two thirds of the perimeter of the blood vessel; level 3: severe deposition, Aβ deposition occupies more than […] of the perimeter of the blood vessel.
smiles,measurement,setting,value
"CC1=NN(c2ccccc2)C(=O)C1 [Edaravone, 3-methyl-1-phenyl-2-pyrazolin-5-one]",proportions of the blood vessels at level 0 and level 1 CAA,,significantly increased
same,proportions of the blood vessels at level 2 and level 3 CAA,,significantly reduced
same,Aβ deposition in the blood vessels of the brain,Edaravone treatment group,significantly reduced
